Reference: patent US11091429B2, “Organic compounds” (Givaudan SA, priority 2012, dated 2021)
Entries after “also recorded” stand apart in the source; their conditions may differ.

Columns and labels:
Tasting in soy sauce = conditions: 0.5 ppm in Kikkoman soy sauce low salt
Method: (§1) The following formulations were prepared and tasted by trained panelists.
Salt level pure product between 5-40%
Salt level in application 0.3-1.0%
(§2) Samples were prepared and evaluated by expert tasters. Tasters were asked to describe the samples focusing on authentic taste, mouthfeel, fullness, salty-ness, salivation, umami, sweetness, juiciness, richness, long lastingness and fattiness.
Test on Kikkoman Soy Sauce Low Salt
Base is Kikkoman soy sauce
Samples were prepared and evaluated by expert tasters. Tasters were asked to describe the samples focusing on authentic taste, mouthfeel, fullness, salivation, salty-ness, umami, sweetness, juiciness, richness, long lastingness and fattiness.

[1] = Tasting in vanilla flavoured milk 3.0% fat; conditions: 4% sugar, vanillin 10 ppm, vanilla extract 0.03%
Method: Vanilla Flavoured Milk 3.0% Fat
In a 3% fat milk drink, sweetened with 4% sucrose by weight, flavoured with Vaniline @ 10 ppm and a Vanilla extract @ 0.03% C18:2-gaba, C18:1-ACOA and C18:1-glu were added at 0.5 or 2 ppm.
Samples were evaluated by expert tasters. Tasters were asked to describe the samples focusing on authentic taste, mouthfeel, fullness, salivation, sweetness, juiciness, richness, long lastingness and fattiness.
Base: Milk 3% fat, 4% sugar, vanillin 10 ppm, vanilla extract 0.03%

[2] = Test in chocolate flavoured drink; conditions: water, 4% sucrose, chocolate flavour 0.03%
Method: as §2
Test in Chocolate Flavoured Drink:
Base: Water, 4% sucrose, proprietary chocolate flavor at 0.03%
(§3) Samples were evaluated by expert tasters. Tasters were asked to describe the samples focusing on authentic taste, mouthfeel, fullness, salty-ness, salivation, umami, sweetness, juiciness, richness, long lastingness and fattiness.
Test in Chocolate Flavoured Drink Flavoured
Base: Water, 4% sucrose, proprietary chocolate flavour @ 0.03%

[3] = Tasting in vanilla milk 0.15% fat; conditions: 4% sucrose, Vaniline 10 ppm + vanilla extract 0.03%
Method: as §2
Base: Milk 0.15% fat, sweetened with 4% sucrose by weight, flavoured with proprietary
Vaniline flavour @ 10 ppm+Vanilla ext. @ 0.03%
as §3
Comparison in a Vanilla Milk Drink
Vaniline @ 10 ppm+Vanilla extract @ 0.03%
Base: Milk 0.15% fat, sweetened with 4% sucrose by weight, flavoured with proprietary Vaniline @ 10 ppm+Vanilla extract @ 0.03%

[4] = Tasting in mango juice drink, 1% clear mango juice; conditions: 8% sucrose, 0.1% citric acid, mango flavour 0.05%
Method: Comparison in a Mango Juice Drink
Base is 8% sucrose, 0.1% citric acid, 1% clear mango juice, and a proprietary mango flavour at 0.05%.
as §3
Base is water, 8% sucrose, 0.1% citric acid, 1% clear mango juice, proprietary mango flavour @ 0.05%
(§4) Samples were evaluated by expert tasters. Tasters were asked to describe the samples focusing on authentic taste, mouthfeel, fullness, salivation, salty-ness, umami, sweetness, juiciness, richness, long lastingness and fattiness.
Base is water, 8% sucrose, 0.1% citric acid, 1% clear mango juice, proprietary mango flavour @0.05%
(§5) Samples were evaluated by expert tasters. Tasters were asked to describe the samples focusing on authentic taste, mouthfeel, fullness, salty-ness, salivation, umami, sweetness, juiciness, richness, long lastingness and fattiness
Base is 8% sucrose, 0.1% citric acid, 1% clear mango juice, proprietary mango flavour @ 0.05%
(§6) Samples were evaluated by expert tasters. Tasters were asked to describe the samples focusing on authentic taste, mouth feel, fullness, salivation, salty-ness, umami, sweetness, juiciness, richness, long lastingness and fattiness
Base is water, 8% sucrose, 0.1% citric acid, 1% clear mango juice, proprietary mango flavour @ 0.05%.
Test in a Mango Juice Drink

[5] = Tasting in strawberry drink; conditions: 0.5 ppm; 7% sucrose, 0.1% citric acid, strawberry flavour 0.015%
Method: as §2
Comparison in a Strawberry Drink
Base is 7% sucrose, 0.1% citric acid, and a proprietary strawberry flavour @ 0.015%
as §3
Base is water, 7% sucrose, 0.1% citric acid, proprietary strawberry flavour @ 0.015%
as §4
Test in a Strawberry Drink
Base is 7% sucrose, 0.1% citric acid, proprietary strawberry flavour @ 0.015%

[6] = Test in peach flavoured drink; conditions: 1 ppm; water, 8% sugar, 0.1% citric acid, peach flavour 0.05%
Method: as §2
Test in Peach Flavoured Drink:
Base is water, 8% sugar, 0.1% citric acid, and proprietary peach flavour at 0.05%
as §3
Comparison in a Peach Drink
Base is water, 8% sugar, 0.1% citric acid, proprietary peach flavour at 0.05%
as §4

[7] = Test in pear flavoured drink; conditions: water, 0.1% citric acid, pear flavour 0.025%
Method: as §2
Test in Pear Flavoured Drink:
Base: water, 7% sugar, 0.1% citric acid, proprietary pear flavour at 0.025%
as §3
Comparison in a Pear Drink
Base is water, 8% sugar, 0.1% citric acid, proprietary pear flavour at 0.025%

Test in lemon beverage = conditions: 1 ppm; water, 7% sucrose, 0.15% citric acid, lemon flavor
Method: as §3
Basis water, 7% sucrose, 0.15% citric acid, proprietary lemon flavor
as §5

Test in orange beverage = conditions: 1 ppm; water, 7% sugar (8% sucrose elsewhere in the source), 0.1% citric acid, orange flavour 0.06%
Method: as §3
Base is water, 7% sugar, 0.1% citric acid, proprietary orange flavour @ 0.06%.
as §5
Base is water, 7% sugar, 0.1% citric acid, proprietary orange flavour @ 0.06%
as §6
Samples were evaluated by expert tasters. Tasters were asked to describe the samples focusing on authentic taste, mouthfeel, fullness, salivation, sweetness, juiciness, richness, long lastingness and fattiness
Comparison in an Orange Drink
Base: water, 8% sucrose, 0.1% citric acid, proprietary orange flavour @ 0.06%.

[8] = Tasting in Maggi beef bouillon; conditions: Maggi beef bouillon 1 tablet in 500 ml of hot water
Method: as §2
Comparison in Beef Bouillon
Base is Maggi beef bouillon 1 tablet in 500 ml of hot water
as §3, §4, §5, §6

[9] = Tasting in strawberry flavoured sugar sweetened yoghurt; conditions: 1.5% fat yoghurt, 8% sucrose, strawberry flavour 0.015%
Method: Strawberry Flavoured Sugar Sweetened Yoghurt
In a 1.5% fat yoghurt base, sweetened with 8% sucrose by weight, flavoured with a proprietary strawberry flavour @ 0.015% several different N-acyl aminoacids were added.
as §2
Test in a Strawberry Yoghurt
Base: Yoghurt 1.5% fat yoghurt, 8% sucrose, proprietary strawberry flavour @ 0.015%
as §4

[10] = Tasting in Activa strawberry yoghurt; conditions: 2 ppm, 13.5% sugar, 3.2% fat
Excerpt: Activa Strawberry Yoghurt
In a Full fat, Activa strawberry flavoured yoghurt containing 13.5% sugar, 3.2% fat C18:2-gaba and C18:0-leu at 2 ppm

[11] = Tasting on fried potato snack product; conditions: 35% fat, cheese seasoning
Method: as §1
A snack product consisting of a fried potato base, containing 35% fat and flavored with cheese seasoning containing salt, MSG, dairy, organic acids, sugars, and a flavour formulation. The following compounds were added to the snack product at the indicated levels and the tasting results are reported: […]

[12] = Tasting in beef bouillon base; conditions: 0.5% fat
Method: as §1
Beef Bouillon base 1.0% salt, 0.5% fat

Test on Tang = conditions: 1 ppm, orange flavoured Tang
Method: In an orange flavoured Tang powdered soft drink (market product) sweetened with sucrose plus high intensity sweetener and containing citric acid, C18:2-gaba and C18:2-pro were tested.
All samples were evaluated by expert tasters. Tasters were asked to describe the samples focusing on authentic taste, mouthfeel & body, enhancement, richness, juiciness, long lastingness, salivation, sweetness, masking off notes of high intensity sweetener
Base is Orange Flavoured Tang

[13] = Tasting in mango still beverage, 4% clear mango juice; conditions: 0.5 ppm; 4% clear mango juice (30% reduced juice)
Method: (§7) Mango Flavoured Still Beverage Containing Different Levels of Juice,
(§8) In a Mango flavoured still beverage, sweetened with 8% sucrose and containing 0.1% citric acid and 1%, 4% and 6% clear mango juice flavoured with a proprietary Mango flavour @ 0.05%, C18:2-gaba and C18:2-Pro were added, as such (separate) and in combination.
(§9) All samples were evaluated by expert tasters. Tasters were asked to describe the samples focusing on authentic taste, juicy mouthfeel, enhancement, richness, juiciness, long lastingness, salivation, sweetness.
In a Mango flavoured still beverage, sweetened with 8% sucrose & containing 0.1% citric acid and 4% clear mango juice flavoured with Mango flavour @ 0.05%, C18:2-gaba and C18:2-Pro were added, as such (separate) and in combination.
Base is water, 8% sucrose, 0.1% citric acid, 4% clear mango juice (30% reduced juice), flavoured with Mango flavor, dosed at 0.05%

[14] = Tasting in mango still beverage, 6% clear mango juice; conditions: 0.5 ppm; 6% clear mango juice (full juice)
Method: as §7, §8, §9
In a Mango-flavoured still beverage, sweetened with 8% sucrose & containing 0.1% citric acid and 6% clear mango juice flavoured with Mango flavour@0.05%, C18:2-gaba and C18:2-Pro were added, as such (separate) and in combination.
Base is water, 8% sucrose, 0.1% citric acid, 6% clear mango juice (full juice), flavoured with Mango flavor, dosed at 0.05%.

[15] = 1 ppm, 7% sugar (8% elsewhere in the source)

## N-oleoyl 1-amino-cyclopropyl carboxylic acid [C18:1-ACCA]
Tasting in soy sauce
  tasting result: Strong upfront saltiness lingering, very strong saltiness
[1]; 0.5 ppm
  tasting result: sweet, sugar-like, vanillic

## CCCCCCCC/C=C\CCCCCCCC(=O)NC(CCC(=O)O)C(=O)O (centres unmarked) [C18:1-glu]
[2]; 0.5 ppm
  tasting result: full cocoa, nice sweet
[3]; 1 ppm
  tasting result: full, beany, more sweet; also recorded: sweet vanillic
[4]; 1 ppm
  tasting result: heavy, jammy, enhanced mango, more sulfury, sl umami
[5]
  tasting result: nice mouthfeel, more natural strawberry, full juicy
[6]
  tasting result: ripe, much more juicy, long lasting, more fatty and sweet
[7]; 0.5 ppm, 7% sugar
  tasting result: nice fatty, juicy, long lasting
[7]; [15]
  tasting result: ripe, authentic pear, juicy, fatty skin like
[1]; 2 ppm
  tasting result: full, fatty, vanilla bean enhanced, whipped cream like

## CCCCCC/C=C\CCCC(=O)NC(CCSC)C(=O)O (centres unmarked) [C12:1-met]
Test in lemon beverage
  tasting result: fresh, slightly more citral
[4]; 1 ppm
  tasting result: ripe full, more juicy, slightly metallic
Test in orange beverage
  tasting result: nice orange, fresh
[8]; 1 ppm
  tasting result: more salty

## CCCCCCCCCCCCCCCCCC(=O)NC(CC(C)C)C(=O)O (centres unmarked) [C18:0-leu]
[4]; 2 ppm
  tasting result: fruity strawberry like, ripe, long lasting
[9]; 2 ppm
  tasting result: fruity authentic strawberry, stronger strawberry, ripe, long lasting, juicy, creamy yoghurt
[9]; 2 ppm, listed as C18:0 leu
  tasting result: Very juicy full, 3D, stronger nicer strawberry, long lasting nice creamy aftertaste
[9]; 5 ppm
  tasting result: Very juicy full, 3D, stronger nicer strawberry, salivating long lasting
[5]
  tasting result: fruity authentic strawberry, stronger strawberry, ripe, long lasting, juicy
[10]
  tasting result: very juicy strawberry full, 3D, stronger strawberry, long lasting and creamy

## CCCCCCCC/C=C\CCCCCCCC(=O)NC(CCSC)C(=O)O (centres unmarked) [C18:1-met]
Test in lemon beverage
  tasting result: fresh, less floral, very juicy, very authentic
[4]; 1 ppm
  tasting result: sweeter, juicy, salivating
[11]; 0.25 ppm on fried potato snack
  tasting result: Salty, aged cheese, succulent
[11]; 0.5 ppm on fried potato snack
  tasting result: Increased cheese, creamy, salty and succulent
[12]; 0.5 PPM in beef bouillon base 1.0% salt
  tasting result: Very salty and rich
[12]; 1.0 PPM in beef bouillon base 1.0% salt
  tasting result: Full bodied, long lasting, more mouthfeel
Test in orange beverage
  tasting result: very juicy fresh, authentic, juicy
[8]; 1 ppm
  tasting result: very strong salty impact and aftertaste; also recorded: very strong salty impact and aftertaste, more fatty, mouthfeel, lingering full bodied
[8]; 25 ppb
  tasting result: more peppery, more salty
[8]; 50 ppb
  tasting result: more salty, more bouillon taste

## CCCCC/C=C\C/C=C\CCCCCCCC(=O)N1CCC[C@H]1C(=O)O [C18:2-Pro, N-linoleoyl-Pro]
Test in lemon beverage
  tasting result: very juicy, more citral like, very authentic
[4]; 0.5 ppm
  tasting result: more sweet, sugar-like, very juicy and long lasting sweet, salivating
Test in orange beverage
  tasting result: very juicy, authentic orange
Test on Tang
  tasting result: very fresh, enhances sweet juicy orange notes, characteristic of authentic fresh orange fruit. Additionally, the off-notes of the high intensity sweetener were suppressed
[13]
  tasting result: more sweet, sugar-like, very juicy and long lasting sweet, salivating
[14]
  tasting result: more sweet, sugar-like, very juicy and long lasting sweet, salivating, syrupy

## CCCCC/C=C\C/C=C\CCCCCCCC(=O)NC(CC(=O)O)C(=O)O (centres unmarked) [C18:2-asp, N-linoleoyl-Asp]
[2]; 2 ppm
  tasting result: cardboard, sweet diy
[3]; 2 ppm
  tasting result: sweet full very natural vanilla
[4]; 1 ppm
  tasting result: fatty, authentic fruit like, slight raspberry and pear note
[6]
  tasting result: fatty skin like, slight apple note
[7]; [15]
  tasting result: very juicy, authentic, texture like pear 3D
